In patent publication US6191152A, “2-(1,2,4-triazole-1-yl)-1,3,4-thiadiazole derivatives having an effect on the C.N.S. and the heart” (EGIS Gyogyszergyar Rt., priority 1997, dated 2001):
Where a name gives a salt, the structure may show the parent alone.

Legend:
[1] = test system: isolated guinea-pig papillary muscle; experiment: Effective refractory period (ERP) prolonging effect in isolated guinea-pig right ventricular papillary muscle, in vitro; set-up: species or system guinea-pig (male); conditions: for ERP change at 10^-4 M / ERP change at 10^-5 M: 30 minutes incubation, mean of at least four preparations
Source text: 2. Measurement of Effective Refracter Period in Guinea-pig Right Ventricular Papillary Muscle, in Vitro.
Effective refracter period (ERP) is regarded to be the shortest time interval between two identical electrical stimuli when both can evoke a twitch in the papillary muscle. A second stimulus applied earlier than the ERP is not effective. Compounds prolonging ERP can have antiarrhythmic effect. This method is useful primarily for testing antiarrhythmic agents belonging to class III according to the Vaughan Williams classification /Bexton, R. S. and Camm. A., J. Pharmacol. Ther., 17, 315 (1982)/.
Experiments were performed in a Schuler-type organ bath system having 4 channels. Male guinea-pigs weighing 450 to 750 g were killed by a blow on the head and ensanguinated. The heart was rapidly excised and papillary muscles of appropriate size (lower than 1 mm in diameter) were dissected from the right ventricle. The preparations were vertically mounted in 20 ml organ chambers containing Krebs solution bubbled with carbogen (consisting of 95% of O2 and 5% of CO2) and maintained at 35° C. The upper end of the muscles was connected with cotton threads to force-displacement transducers coupled to a recorder for measuring isometric tension via DC-bridge amplifiers. The lower end of the papillary muscles was pinned to the organ chamber with a silver hook that was also used as a stimulating electrode. The other electrode was immersed into the organ bath and had no direct contact with the preparation. The composition of the Krebs solution was the following (in mm): NaCl 118, KCl 4.8, NaHCO3 27.2, glucose 11.1, MgSO4 1.2, KH2 PO4 1, CaCl2 2.6, pH=7.4.
The preparations were equilibrated for 120 minutes under a resting tension of 1 g. During equilibration they were electrically stimulated at a rate of 2 Hz with 1 msec rectangular pulses that were above the diastolic threshold voltage by 10%. ERP was determined using a standard extrastimulus technique. Extrastimuli (S2) were interjected between the normal stimuli (S1) in such a way that the S1 -S2 interval was initially below the refracter period of the tissue. The S1 -S2 interval was then widened by increments of 1 msec until the extrastimulus (S2) evoked twitch of the papillary muscle. The force of the twitch caused by S2 is larger than those caused by normal (S1) stimuli (postextrasystolic potentiation). The equipment measured the shortest S1 -S2 interval at which the extrastimulus evoked a twitch that was larger than the force of control twitches by 25%. This interval is equivalent with the ERP.
The experimental protocol was as follows:
Two control ERP measurements were performed 20 minutes apart, then appropriate amount of the test substance was added to produce 10^-4 M concentration in the bathing solution. After 30 minutes incubation with the test substance, two ERP measurements were performed 30 minutes apart.
When the test substance increased ERP at 10^-4 M by 40 msec or more, its effect on ERP was tested also at 10^-5 M.
The effect of the test substances was characterized by the difference between the first treated and the second control measurements. Individual data obtained from four different preparations, at least, were averaged. The reference substance used was sotalol i.e. N-[4-/1-hydroxy-2-(1-methylethylamino)ethyl/plenyl]methane sulfonamide.

[2] = test system: isolated Langendorff rat hearts; experiment: Cardioprotective effect (time to contracture, TTC) in globally ischemic isolated Langendorff rat hearts; set-up: species or system rat (male Wistar); conditions: for TTC change vs vehicle (%) at 10 µM / TTC change vs vehicle (%) at 1 µM: Rattus norvegicus, compared to the vehicle treated group; for TTC change vs vehicle (%) at 10 µM: 10^-5 M; for TTC change vs vehicle (%) at 1 µM: 10^-6 M
Source text: 3. Measurement of Cardioprotective Effect in Ischemic rat Heart (Langendorff) Preparation
If the blood supply to a part of the myocardium is interrupted (e.g. during myocardial infarction), then the intracellular calcium concentration starts to rise and gradually attains pathophysiological levels. Myocardial contraction is regulated by calcium, therefore, high intracellular calcium concentration results in contracture of the myocardium. In isolated rat hearts, contracture develops in about 10 minutes after starting global ischemia, and this period is called time to contracture (TTC). Any substance which can inhibit the rise of intracellular calcium concentration and the development of contracture caused by high calcium concentration during ischemia protects the myocardium from impairment i.e. it has cardioprotective effect. Under experimental conditions,the cardioprotective effect of drugs is shown by their ability to prolong TTC. The cardioprotective effect of the compounds of the invention was examined by measuring TTC in globally ischemic Langendorff rat hearts/Longman, S. D. and Hamilton, T. C., Medicinal Research Reviews, 12, 73-148 (1992)/.
Male Wistar rats weighing 300 to 350 g were injected with 2500 IU (0.5 ml) of heparin i.p. and 10 minutes later they were anaesthetized with sodium pentobarbital/5-ethyl-5-(1-methylbutyl)-2,4,6(1H,3H,5H)-pyrimidinetrione sodium salt/in a dose of 60 mg/kg i.p. The heart was quickly excised and connected to a Langendorff apparatus via the aorta. The hearts were perfused at a constant perfusion pressure (60 mmHg) and temperature (37° C.) with a modified Krebs-Henseleit solution gassed with 95% of O2 and 5% of CO2. The composition of the modified Krebs-Henseleit solution was the following (in mM): NaCl 118, KCl 4.7, CaCl2 2.5, NaHCO3 24.88, KH2 PO4 1.18, MgSO4 1.6, EDTA 0.5 and glucose 11. Partial O2 and CO2 pressures and also pH were measured and maintained within normal limits (pO2 ==64000-77000 Pa, pCO2 =3800-4500 Pa, pH=7.3-7.45). A hole was cut in the wall of the left atrium and a water-filled plastic balloon attached to a metal cannula was then inserted into the left ventricle via the left atrium for measuring left ventricular pressure. End diastolic pressure was set to about 645 Pa, and adjusted for during the equilibration period but not later.
After a 20 minutes equilibration period, the hearts were perfused for 10 minutes with the test substance at 10^-5 or 10^-6 concentration or with the vehicle (0.04% of dimethyl sulfoxide). Global ischemia was initiated by completely shutting off the perfusate flow and carbogenization for 25 minutes. During ischemia, the time period from the beginning of ischemia until 645 Pa increase in left ventricular end diastolic pressure was measured (TTC).
Three experiments were performed with the test substances at each concentration and parameters of 3 additional vehicle treated hearts were measured along with the test substance.
Individual TTC values were averaged and the effect of the test substances was expressed as a percentage change compared to the vehicle treated group. Compounds that prolong TTC are cardioprotective. As a reference substance, lemakalim i.e. (3S)-trans-3,4-dihydro-3-hydroxy-2,2-dimethyl-4-(2-oxo-1-pyrrolidinyl)-2H- 1-benzpyrane-6-carbonitrile was used.

[3] = test system: isolated rat thoracic aorta; experiment: Vascular relaxing effect in potassium chloride (20 mM KCl) contracted isolated rat thoracic aorta; set-up: species or system rat (male SPRD); conditions: for IC50: Rattus norvegicus, 20 mM KCl contracted strips, 37° C., read-out: IC50 (vascular relaxation in isolated rat thoracic aorta)
Procedure: 1. Measurement of Vascular Relaxing Effect in Potassium Chloride Contracted Isolated rat Thoracic Aorta
Experiments were performed in thoracic aortas obtained from male SPRD rats weighing 250 to 300 g. Thoracic aortas excised from rats killed by decapitation and ensanguination were cleaned of fat and connective tissue, then were immediately placed in carbogenized TYRODE solution. The composition of the normal TYRODE solution was the following (in mM): NaCl 114.7, KCl 3.7, CaCl2 3.6, MgCl2 0.49, NaHCO3 19.9, NaH2 PO4 0.32, glucose 5.1.
Two mm wide and 20 to 25 mm long strips were cut from the aortas along a helical line at 45° angle. Aortic strips were mounted vertically between two cotton threads in 10 ml organ chambers, the lower threads were attached to the organ chambers and the upper threads were connected to isometric force transducers. The strips were incubated under 1 g resting tension at 37° C. for 120 minutes, then resting vascular tone was recorded. Then the strips were contracted with a TYRODE solution containing 20 mM KCl. The composition of the high potassium TYRODE solution was the following (in mM): NaCl 94.7, KCl 20, CaCl2 3.6, MgCl2 0.49, NaHCO3 19.9, NaH2 PO4 0.32, glucose 5.1.
When stable vascular tone developed, increasing doses of the test substance were added to the organ bath. The effects of each test substance were measured at least in 3 tissue preparations obtained from different animals. Decreases in vascular tension caused by the test substances were expressed as percentage changes and IC50 for each tissue preparation was determined by sigmoid (in few casses linear) curve fitting.
For comparison, cromakalim i.e. (±)-trans-3,4-dihydro-3-hydroxy-2,2-dimethyl-4-(2-oxo-1-pyrrolidinyl)-2H-1-benzopyrane-6-carbonitrile was used.

Row | Structure (SMILES) | ERP change at 10^-4 M [1] | ERP change at 10^-5 M [1] | TTC change vs vehicle (%) at 10 µM [2] | TTC change vs vehicle (%) at 1 µM [2] | IC50 [3] | ERP prolongation (in words) [1] | TTC prolongation (in words) [2] | vascular relaxation of isolated rat thoracic aorta (in words) [3]
1 | CN1CCN(c2nc(N)n(-c3nnc(-c4c(Cl)cccc4Cl)s3)n2)CC1 [Example 10, 2-/5-Amino-3-(4-methylpiperazino)-1H-1,2,4-triazole-1-yl/ -5-(2,6-dichlorophenyl)-1,3,4-thiadiazole hydrochloride monohydrate] | 120 msec | 32 msec | 74% | 47% | > 10 µM | – | – | –
2 | CSc1nc(N)n(-c2nnc(-c3cccc(OCCCN(C)C)c3)s2)n1 [Example 26, 2-(5-Amino-3-methylthio-1H-1,2,4-triazole-1-yl)-5-/ 3-(3-dimethylaminopropoxy)phenyl/-1,3,4-thiadiazole hydrochloride] | 148 msec | 21 msec | 41% | 33% | > 10 µM | prolonged not only TTC but ERP as well | prolonged not only TTC but ERP as well | –
3 | CSc1nc(N)n(-c2nnc(-c3ccccc3OCCCN(C(C)C)C(C)C)s2)n1 [Example 45, 2-(5-Amino-3-methylthio-1H-1,2,4-triazole-1-yl)-5-[2-/ 3-di(2-methylethyl)aminopropoxy/phenyl]-1,3,4-thiadiazole] | – | – | 31% | 30% | > 1 µM | – | – | –
4 | CCN(CCO)CCOc1ccccc1-c1nnc(-n2nc(N3CCCCC3)nc2N)s1 [Example 90, 2-(5-Amino-3-piperidino-1H-1,2,4-triazole-1-yl)-5-{2-[2-/ 2-ethyl-2-(2-hydroxyethyl)amino/ethoxy]phenyl}-1,3,4-thiadiazole] | – | – | 36% | 19% | > 10 µM | – | – | –
5 | Nc1nc(N2CCCCC2)nn1-c1nnc(-c2ccccc2OCCNCCN2CCOCC2)s1 [Example 91, 2-(5-Amino-3-piperidino-1H-1,2,4-triazole-1-yl)-5-[2-/ 2-(2-morpholinoethyl)amino/ethoxy]phenyl-1,3,4-thiadiazole] | – | – | – | 58% | > 1 µM | – | – | –
6 | COc1ccc(CCN(C)CCCOc2cccc(-c3nnc(-n4nc(SC)nc4N)s3)c2)cc1OC [Example 105, 2-(5-Amino-3-methylthio-1H-1,2,4-triazole-1-yl)-5-{3-[3-methyl-3-/ 2-(3,4-dimethoxyphenylethyl)amino/propoxy]phenyl}-1,3,4-thiadiazole] | 62 msec | 14 msec | – | – | > 1 µM | – | – | –
7 | COc1ccc(CCN(C)CCCOc2ccc(-c3nnc(-n4nc(SC)nc4N)s3)cc2)cc1OC [Example 108, 2-(5-Amino-3-methylthio-1H-1,2,4-triazole-1-yl)-5-{4-[3-methyl-3-/ 2-(3,4-dimethoxyphenylethyl)amino/propoxy]phenyl}-1,3,4-thiadiazole] | 66 msec | 29 msec | – | – | > 10 µM | – | – | –
8 | CC1(C)Oc2ccc(C#N)cc2[C@@H](N2CCCC2=O)[C@@H]1O [lemakalim, (3S)-trans-3,4-dihydro-3-hydroxy-2,2-dimethyl-4-(2-oxo-1-pyrrolidinyl)-2H-1-benzpyrane-6-carbonitrile, reference compound] | – | – | 55% | 20% | – | – | prolonged not only TTC | considerably relaxed isolated rat thoracic aorta
